Results as given in patent US9163021B2, “Pyrrolo[3,2-c]pyridine tropomyosin-related kinase inhibitors” (Pfizer Limited, priority 2012, dated 2015).

biological target: TRKA (Homo sapiens (Human), UniProt P04629); test: Isolated TRK enzyme assay (HTRF KinEASE-TK), PV3144 TrkA enzyme assay; format: biochemical; settings: arithmetic mean where more than one reading
Procedure: Isolated TRK Enzyme assays use the HTRF KinEASE-TK kit (Cisbio Cat#62TK0PEJ) with recombinant His-tagged cytoplasmic domains of each TRK receptor sourced from Invitrogen (see table below). This activity-assay measures the phosphorylation of tyrosine residues within a substrate from the HTRF kit which has been validated by Cisbio for a variety of tyrosine kinases including the TRK receptors.
0.5 mM stock solutions of test compounds are prepared and serially diluted in 100% DMSO. A standard curve using the compound of Example 135 disclosed in WO2005/116035 of 150 uM is also prepared on each test plate. High percentage effect (HPE) is defined by 150 uM (using the compound of Example 135 as disclosed in WO2005/116035) and 0% effect (ZPE) is defined by 100% DMSO. Greiner low volume black plates containing 0.2 ul of serially diluted compound, standard and HPE/ZPE are created using the Bravo nanoliter dispenser.
1× enzyme buffer is prepared from 5× Enzymatic Buffer from the Cisbio KinEASE TK kit using MilliQ water. The buffer is then supplemented with 10 mM MgCI and 2 mM DTT (both from Sigma). In the case of TRKB, the buffer is also supplemented with 125 nM Supplement Enzymatic Buffer (SEB) from the Cisbio kit.
2× FAC of enzyme and 2× FAC ATP diluted in 1× complete enzyme buffer is incubated at room temperature for 20 minutes to preactivate the enzyme. Following this preactivation step, 5 ul/well of enzyme+ATP mix is added using a Multidrop Micro to the assay plate, spotted with 0.2 ul 100% DMSO compound. This is left for 20 mins at room temperature before adding 5 ul of 2 uM TK-substrate-Biotin (from the Cisbio kit) diluted in 1× enzyme buffer (1 uM FAC) using the Multidrop Micro. The reaction is incubated at room temperature for the optimized assay reaction time (see table). The reaction is stopped by adding 10 ul/well HTRF Detection Buffer containing 0.25 uM Streptavidin-XL665 (0.125 uM FAC) and 1:200 TK Antibody-Cryptate using a Multidrop.
After the Detection Reagent addition, plates are covered and incubated at room temperature for 60 minutes. HTRF signal is read using an Envision reader, measured as a ratio of emissions at two different wavelengths, 620 nm and 665 nm. […] Test compound data are expressed as percentage inhibition defined by HPE and ZPE values for each plate. Percentage inhibition in the presence of test compound is plotted against compound concentration on a log scale to determine an IC50 from the resultant sigmoid curve.
Where more than one reading was taken, the arithmetic mean is presented.

TRKA, sequence (P04629 441-796): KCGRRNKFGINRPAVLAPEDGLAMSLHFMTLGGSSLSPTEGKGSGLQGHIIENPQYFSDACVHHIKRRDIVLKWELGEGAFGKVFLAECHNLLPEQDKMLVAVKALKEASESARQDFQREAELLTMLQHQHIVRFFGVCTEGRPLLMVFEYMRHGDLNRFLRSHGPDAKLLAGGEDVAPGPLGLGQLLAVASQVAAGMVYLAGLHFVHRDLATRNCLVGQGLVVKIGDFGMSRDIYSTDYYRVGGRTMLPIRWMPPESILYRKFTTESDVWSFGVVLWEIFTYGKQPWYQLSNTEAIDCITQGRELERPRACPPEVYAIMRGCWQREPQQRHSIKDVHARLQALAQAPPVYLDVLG

IC50 [nM] | Compound
187 | COc1ncc(C(=O)c2cn(C(C)C)c3ccncc23)cc1NC(=O)Cc1ccc(C#N)cc1 [Example 47, 2-(4-cyanophenyl)-N-(2-methoxy-5-{[1-(propan-2-yl)-1H-pyrrolo[3,2-c]pyridin-3-yl]carbonyl}pyridin-3-yl)acetamide]
36.4 | CC(CO)n1cc(C(=O)c2cc(NC(=O)Cc3cccc(C(F)(F)F)c3)ccn2)c2cnccc21 (single isomer, unassigned) [Example 18, 2-(3-trifluoromethylphenyl)-N-(2-{[1-(1-hydroxypropan-2-yl)-1H-pyrrolo[3,2-c]pyridin-3-yl]carbonyl}pyridin-4-yl)acetamide]
27.1 | CC(C)n1cc(C(=O)c2cncc(NC(=O)Cn3ccc(C(F)(F)F)n3)c2)c2cnccc21 [Example 21, N-(5-{[1-(propan-2-yl)-1H-pyrrolo[3,2-c]pyridin-3-yl]carbonyl}pyridin-3-yl)-2-[3-(trifluoromethyl)-1H-pyrazol-1-yl]acetamide]
2370 | CC(C)n1cc(C(=O)c2cncc(NC(=O)Cc3ccccc3Cl)c2)c2cnccc21 [Example 100, 2-(2-chlorophenyl)-N-(5-{[1-(propan-2-yl)-1H-pyrrolo[3,2-c]pyridin-3-yl]carbonyl}pyridin-3-yl)acetamide]
124 | Cc1nc(CC(=O)Nc2cncc(C(=O)c3cn(C(C)C)c4ccncc34)c2)c(C2CC2)o1 [Example 24, 2-(5-cyclopropyl-2-methyl-1,3-oxazol-4-yl)-N-(5-{[1-(propan-2-yl)-1H-pyrrolo[3,2-c]pyridin-3-yl]carbonyl}pyridin-3-yl)acetamide]
198 | CC(C)c1ccnn1CC(=O)Nc1cncc(C(=O)c2cn(C(C)C)c3ccncc23)c1 [Example 124, 2-(5-(propan-2-yl)-1H-pyrazol-1-yl]-N-(5-{[1-(propan-2-yl)-1H-pyrrolo[3,2-c]pyridin-3-yl]carbonyl}pyridin-3-yl)acetamide]
9.66 | CC(C)n1cc(C(=O)c2cncc(NC(=O)Cn3cc(C(F)(F)F)cn3)c2)c2cncc(F)c21 [Example 31, N-(5-{[7-fluoro-1-(propan-2-yl)-1H-pyrrolo[3,2-c]pyridin-3-yl]carbonyl}pyridin-3-yl)-2[4-(trifluoromethyl)-1H-pyrazol-1-yl]acetamide]
986 | O=C(Cc1ccccc1OC(F)(F)F)Nc1cc(C(=O)c2cn(CCO)c3ccncc23)ccn1 [Example 143, N-(4-{[1-(2-hydroxyethyl)-1H-pyrrolo[3,2-c]pyridin-3-yl]carbonyl}pyridin-2-yl)-2-[2-(trifluoromethoxy)phenyl]acetamide]
13.3 | CC(C)n1cc(C(=O)c2ccnc(NC(=O)Cc3ccc(F)cc3)c2)c2cnccc21 [Example 186, 2(4-fluorophenyl)-N-(4-{[1-(propan-2-yl)-1H-pyrrolo[3,2-c]pyridin-3-yl]carbonyl}pyridin-2-yl)acetamide]
174 | Cc1oc(C2CC2)nc1CC(=O)Nc1cc(C(=O)c2cn(C3COC3)c3ccncc23)ccn1 [Example 200, 2-(2-cyclopropyl-5-methyl-1,3-oxazol-4-yl)-N-(4-{[1-(oxetan-3-yl)-1H-pyrrolo[3,2-c]pyridin-3-yl]carbonyl}pyridin-2-yl)acetamide]
17.9 | CC(C)n1cc(C(=O)c2ccnc(NC(=O)Cc3ccc(F)cc3F)c2)c2cnccc21 [Example 106, 2-(2,4-difluorophenyl)-N-(4-{[1-(propan-2-yl)-1H-pyrrolo[3,2-c]pyridin-3-yl]carbonyl}pyridin-2-yl)acetamide]
2600 | Cc1ccnn1CC(=O)Nc1cncc(C(=O)c2cn(C(C)C)c3ccncc23)c1 [Example 135, 2-(5-methyl-1H-pyrazol-1-yl)-N-(5-{[1-(propan-2-yl)-1H-pyrrolo[3,2-c]pyridin-3-yl]carbonyl}pyridin-3-yl)acetamide]
51.7 | CC(C)n1cc(C(=O)c2cncc(NC(=O)Cc3ccc(C#N)c(C(F)(F)F)c3)c2)c2cnccc21 [Example 37, 2-[4-cyano-3-(trifluoromethyl)phenyl]-N-(5-{[1-(propan-2-yl)-1H-pyrrolo[3,2-c]pyridin-3-yl]carbonyl}pyridin-3-yl)acetamide]
284 | Cc1ccn(CC(=O)Nc2cncc(C(=O)c3cn(C(C)C)c4ccncc34)c2)n1 [Example 134, 2-(3-methyl-1H-pyrazol-1-yl)-N-(5-{[1-(propan-2-yl)-1H-pyrrolo[3,2-c]pyridin-3-yl]carbonyl}pyridin-3-yl)acetamide]
4310 | CC(C)c1ccnn1CC(=O)Nc1cc(C(=O)c2cn(CCO)c3ccncc23)ccn1 [Example 147, N-(4-{[1-(2-hydroxyethyl)-1H-pyrrolo[3,2-c]pyridin-3-yl]carbonyl}pyridin-2-yl)-2-[5-(propan-2-yl)-1H-pyrazol-1-yl]acetamide]
6510 | CC(C)n1cc(C(=O)c2ccnc(NC(=O)Cn3cnnn3)c2)c2cnccc21 [Example 170, N-(4-{[1-(propan-2-yl)-1H-pyrrolo[3,2-c]pyridin-3-yl]carbonyl}pyridin-2-yl)-2(1H-tetrazol-1-yl)acetamide]
77.6 | CC(CO)n1cc(C(=O)c2cncc(NC(=O)Cn3cc(C(F)(F)F)nn3)c2)c2cnccc21 (single isomer, unassigned) [Example 69, N-(5-{[1-(1-hydroxypropan-2-yl)-1H-pyrrolo[3,2-c]pyridin-3-yl]carbonyl}pyridin-3-yl)-2-[4-(trifluoromethyl)-1H-1,2,3-triazol-1-yl]acetamide]
45.6 | CC(CO)n1cc(C(=O)c2cncc(NC(=O)Cn3ccc(C(F)(F)F)n3)c2)c2cncc(F)c21 (single isomer, unassigned) [Example 210, N-(5-{[7-fluoro-1-(1-hydroxypropan-2-yl)-1H-pyrrolo[3,2-c]pyridin-3-yl]carbonyl}pyridin-3-yl)-2-[3-(trifluoromethyl)-1H-pyrazol-1-yl]acetamide]
20.4 | Cc1cc(C(F)(F)F)nn1CC(=O)Nc1cncc(C(=O)c2cn(C(C)CO)c3c(F)cncc23)c1 (single isomer, unassigned) [Example 216, N-(5-{[7-fluoro-1-(1-hydroxypropan-2-yl)-1H-pyrrolo[3,2-c]pyridin-3-yl]carbonyl}pyridin-3-yl)-2-[5-methyl-3-(trifluoromethyl)-1H-pyrazol-1-yl]acetamide]
82.4 | CC(C)n1cc(C(=O)c2cncc(NC(=O)Cn3cc(C4CC4)nn3)c2)c2cncc(F)c21 [Example 89, 2-(4-cyclopropyl-1H-1,2,3-triazol-1-yl)-N-(5-{[7-fluoro-1-(propan-2-yl)-1H-pyrrolo[3,2-c]pyridin-3-yl]carbonyl}pyridin-3-yl)acetamide]
36.1 | CC(C)n1cc(C(=O)c2ccnc(NC(=O)Cc3nc(C(C)(C)C)nn3C)c2)c2cnccc21 [Example 171, 2(3-tert-butyl-1-methyl-1H-1,2,4-triazol-5-yl)-N-(4-{[1-(propan-2-yl)-1H-pyrrolo[3,2-c]pyridin-3-yl]carbonyl}pyridin-2-yl)acetamide]
71.3 | 2-(2,5-dicyclopropyl-1,3-oxazol-4-yl)-N-(4-{[1-(oxetan-3-yl)-1H-pyrrolo[3,2-c]pyridin-3-yl]carbonyl}pyridin-2-yl)acetamide [Example 203]
44.7 | CC(CO)n1cc(C(=O)c2cncc(NC(=O)Cn3ccc(C(F)(F)F)n3)c2)c2cnccc21 (stereo not drawn) [Example 60, N-(5-{[1-(1-hydroxypropan-2-yl)-1H-pyrrolo[3,2-c]pyridin-3-yl]carbonyl}pyridin-3-yl)-2-[3-(trifluoromethyl)-1H-pyrazol-1-yl]acetamide]
73.8 | CC(C)n1cc(C(=O)c2cc(NC(=O)Cc3ccc(Cl)cn3)ccn2)c2cnccc21 [Example 55, 2-(5-chloropyridin-2-yl)-N-(2-{[1-(propan-2-yl)-1H-pyrrolo[3,2-c]pyridin-3-yl]carbonyl}pyridin-4-yl)acetamide]
6.61 | CC(C)(CO)n1cc(C(=O)c2cncc(NC(=O)Cc3ccc(C(F)(F)F)cc3)c2)c2cncc(F)c21 [Example 7, N-{5-[7-Fluoro-1-(2-hydroxy-1,1-dimethyl-ethyl)-1H-pyrrolo[3,2-c]pyridine-3-carbonyl]-pyridin-3-yl}-2-(4-trifluoromethyl-phenyl)-acetamide]

Compound | IC50 [nM]
O=C(Cc1nc(C2CC2)oc1C1CC1)Nc1cc(C(=O)c2cn(C3COC3)c3ccncc23)ccn1 [Example 202, 2-(2,5-dicyclopropyl-1,3-oxazol-4-yl)-N-(4-{[1-(oxetan-3-yl)-1H-pyrrolo[3,2-c]pyridin-3-yl]carbonyl}pyridin-2-yl)acetamide] | 437
2-(3-methoxyphenyl)-N-(5-{[1-(propan-2-yl)-1H-pyrrolo[3,2-c]pyridin-3-yl]carbonyl}pyridin-3-yl)acetamide [Example 129] | 96.2
